We go through two molecules from EPA's CvTdb concentration-time database.

For data set [1], the system named is Rat. Kind of data set: concentration in plasma after dosing. Particulars: 15 h; dosed: Gemfibrozil; 50 mg/kg; oral; Male; Sprague-Dawley.
For data set [2], the system named is Rat. Kind of data set: concentration in brain after dosing. Particulars: 1 h; dosed: Fluorotelomer alcohol 8+2; 80 mg/kg; oral; Female; Harlan Sprague Dawley.
Data set [3] concerns Rat. As to the kind of experiment: concentration in liver after dosing. Particulars: 3 h; dosed: Fluorotelomer alcohol 8+2; 80 mg/kg; oral; Female; Harlan Sprague Dawley.
In data set [4] the test system is Rat. Kind of data set: concentration in liver after dosing. Particulars: 12 h; dosed: Fluorotelomer alcohol 8+2; 24 mg/kg; oral; Male; Harlan Sprague Dawley.
The subject of data set [5] is Rat. As to the kind of experiment: concentration in kidney after dosing. The following applies: 6 h; dosed: Fluorotelomer alcohol 8+2; 24 mg/kg; oral; Male; Harlan Sprague Dawley.
In data set [6] the test system is Rat. As to the kind of experiment: concentration in kidney after dosing. Particulars: 6 h; dosed: Fluorotelomer alcohol 8+2; 80 mg/kg; oral; Female; Harlan Sprague Dawley.
The subject of data set [7] is Rat. As to the kind of experiment: concentration in plasma after dosing. Particulars: dosed: 678-39-7, 40 mg/kg, iv, Female, Harlan Sprague-Dawley.
Data set [8] deals with Rat. As to the kind of experiment: concentration in plasma after dosing. The following applies: dosed: 678-39-7, 40 mg/kg, iv, Female, Harlan Sprague-Dawley. This is another data set of the same source.
Data set [9] relates to Rat. Kind of data set: concentration in plasma after dosing. The following applies: dosed: Fluorotelomer alcohol 8+2, 12 mg/kg, oral, Male, Harlan Sprague Dawley.
For data set [10], the system named is Rat. As to the kind of experiment: concentration in plasma after dosing. Particulars: dosed: Fluorotelomer alcohol 8+2, 12 mg/kg, oral, Male, Harlan Sprague Dawley. This is another data set of the same source.

In the case of `Cc1ccc(C)c(OCCCC(C)(C)C(=O)O)c1` [Gemfibrozil], the concentration in plasma in [1] is 0.928 µg/mL.
As to `O=C(O)CCC(F)(F)C(F)(F)C(F)(F)C(F)(F)C(F)(F)C(F)(F)C(F)(F)F` [Fluorotelomer acid 7+3], the concentration in brain in data set [2] was determined as 252 ng/g. Further, the concentration in liver in data set [3] worked out at 10700 ng/g; in [4] it was 1400 ng/g. The concentration in kidney in [5] was 1250 ng/g; in data set [6], 3640 ng/g. Besides, the concentration in plasma in data set [7] (0.75 h) was 929 ng/mL; in [7] (12 h) it was 368 ng/mL; in data set [8] (1 h), 1680 ng/mL; in data set [8] (24 h), 315 ng/mL; in data set [9] (0.5 h) it was 133 ng/mL; in [9] (9 h), 218 ng/mL. The concentration in plasma in data set [10] (0.75 h) was 313 ng/mL; in data set [10] (12 h) it was 197 ng/mL.
